Columns and labels:
[1] = Hydrogen sulfide selectivity test: decomplexation by Na2S2O5; type: physicochemical; settings: 100 μM or (1 mM), 37° C. for 15 minutes
Experimental: (§1) In addition to hydrogen sulfide, many different anions, radicals, etc. exist in the body. Therefore, to examine selective reactivity of the ^64Cu-labeled complex compound according to the present disclosure for sulfide ions, the following experiment was performed.
(§2) About 45 μCi-55 μCi of the ^64Cu-labeled complex compound (250 μL of triple distilled water) was mixed with 100 μM of various anion solutions (250 μL of triple distilled water) including biothiol, and stirred at 37° C. for 15 minutes.
(§3) Formation of copper sulfide (^64CuS) was quantified by using a radio-TLC scanner.
(§4) Various biothiol or salt solutions were prepared by dissolving the compounds in triple distilled water.
(§5) In Table, concentrations of all biothiols and other competitive materials are 100 μM. Further, specific concentrations of biothiols, anions, and oxidants used in Table are as follows: [L-Cys (1 mM); L-Hcys (10 mM); GSH (10 mM); DL-dithiothretitol (DTT, 100 μM); L-ascorbic acid (L-AsA, 10 mM); 2-mercaptoethanol (2-ME, 10 mM); NaCl (10 mm); KI (1 mM); Na2S2O3 (1 mM); Na2S2O5 (1 mM); NaOAc (1 mM); H2O2 ([…]); NaClO4 (100 μM); NaHCO3 (100 μM); NaNO2 ([…]); NaN3 (100 μM); ATB 337 (100 μM); diallyl trisulphide (100 μM)].

[2] = Hydrogen sulfide selectivity test: decomplexation by ME; type: physicochemical; settings: 2-mercaptoethanol; 100 μM or (2-ME, 10 mM); 37° C. for 15 minutes
Experimental: as §1, §2, §3, §4, §5

[3] = Test of hydrogen sulfide selectivity (overall statements); type: physicochemical
Experimental: as §1, §2, §3, §4, §5

[4] = Hydrogen sulfide selectivity test: decomplexation by H2O2; type: physicochemical; settings: H2O2 (100 µM); 37° C. for 15 minutes
Experimental: as §1, §2, §3, §4, §5

[5] = Hydrogen sulfide selectivity test: decomplexation by Cys; type: physicochemical; settings: 100 μM or L-Cys (1 mM), 37° C. for 15 minutes
Experimental: as §1, §2, §3, §4, §5

Paw inflammation model = type: in vivo, Balb/c or ICR mice; settings: for selective uptake in inflamed sites: optical imaging and nuclear medicine imaging
Experimental: (1) Paw Pain Inflammation Model
A small amount of CFA (complete Freund's adjuvant) or formalin was injected into only one paw (right) of the hind paws of Balb/c or ICR mice to establish inflammation models. 1 day after injection of the inflammation inducer, the mice were used in imaging or other in vivo experiments.
It is a known fact that inflamed sites show high concentrations of hydrogen sulfide.
Nuclear medicine imaging was measured by using an Inveon PET/CT system of Siemens Healthcare, and optical imaging was measured by using IVIS spectrum CT equipment. Cherenkov radiation emitted from ^64Cu was measured by using a highly sensitive CCD (charge-coupled device) camera.
Imaging was measured for 1 minute to 5 minutes, and a radiation dose was about 50 μCi to 2000 μCi, and photographs were variously taken as needed, such as immediately after first injection, at 1 hour, 4 hours, and 24 hours later.

[6] = Test of hydrogen sulfide detection over time (^64CuS formation, radio-TLC); type: physicochemical; parameters: unit not given here; settings: 100 μM NaHS, 37° C.
Experimental: To examine reactivity of the ^64Cu-labeled complex compound according to the present disclosure over time, the following experiment was performed.
A detailed experimental method is as follows.
About 45 μCi-50 μCi of ^64Cu-labeled complex compound (250 μL of triple distilled water) was mixed with 100 μM of NaHS solution ([…] of triple distilled water), and stirred at 37° C. for 15 minutes. Formation of copper sulfide (^64CuS) was quantified by using a radio-TLC scanner.

[7] = Hydrogen sulfide selectivity test: decomplexation by NaHCO3; type: physicochemical; settings: NaHCO3 (100 μM); 37° C. for 15 minutes
Experimental: as §1, §2, §3, §4, §5

[8] = Hydrogen sulfide selectivity test: decomplexation by NaClO4; type: physicochemical; settings: NaClO4 (100 μM); 37° C. for 15 minutes
Experimental: as §1, §2, §3, §4, §5

[9] = Hydrogen sulfide selectivity test: decomplexation by Hcys; type: physicochemical; settings: 100 μM or L-Hcys (10 mM), 37° C. for 15 minutes
Experimental: as §1, §2, §3, §4, §5

[10] = Hydrogen sulfide selectivity test: decomplexation by ATB 337; type: physicochemical; settings: ATB 337 (100 μM); 37° C. for 15 minutes
Experimental: as §1, §2, §3, §4, §5

[11] = Hydrogen sulfide selectivity test: decomplexation by GSH; type: physicochemical; settings: 100 μM or GSH (10 mM), 37° C. for 15 minutes
Experimental: as §1, §2, §3, §4, §5

[12] = Hydrogen sulfide selectivity test: decomplexation by Kl; type: physicochemical; settings: 100 μM or KI (1 mM), 37° C. for 15 minutes
Experimental: as §1, §2, §3, §4, §5

[13] = Hydrogen sulfide selectivity test: decomplexation by L-AsA; type: physicochemical; settings: L-ascorbic acid; 100 μM or (L-AsA, 10 mM); 37° C. for 15 minutes
Experimental: as §1, §2, §3, §4, §5

[14] = Hydrogen sulfide selectivity test: decomplexation by NaCl; type: physicochemical; settings: 100 μM or NaCl (10 mm), 37° C. for 15 minutes
Experimental: as §1, §2, §3, §4, §5

[15] = Hydrogen sulfide selectivity test: decomplexation by NaOAc; type: physicochemical; settings: 100 μM or (1 mM), 37° C. for 15 minutes
Experimental: as §1, §2, §3, §4, §5

[16] = Hydrogen sulfide selectivity test: decomplexation by NaNO2; type: physicochemical; settings: NaNO2 (100 µM); 37° C. for 15 minutes
Experimental: as §1, §2, §3, §4, §5

[17] = Hydrogen sulfide selectivity test: decomplexation by DTT; type: physicochemical; settings: DL-dithiothretitol (DTT, 100 μM); 37° C. for 15 minutes
Experimental: as §1, §2, §3, §4, §5

[18] = Hydrogen sulfide selectivity test: decomplexation by Na2S2O3; type: physicochemical; settings: 100 μM or (1 mM), 37° C. for 15 minutes
Experimental: as §1, §2, §3, §4, §5

[19] = Test of hydrogen sulfide detection sensitivity (% decomplexation with NaHS, radio-TLC); type: physicochemical; settings: 37° C. for 15 minutes
Experimental: To measure hydrogen sulfide detection sensitivity of the ^64Cu-labeled complex compound according to the present disclosure, the following experiment was performed.
About 45 μCi-55 μCi of ^64Cu-labeled complex compound (250 μL of triple distilled water) was mixed with various concentrations of NaHS solution (250 µL of triple distilled water), and stirred at 37° C. for 15 minutes (a total volume used in the reaction was equally 500 μL). After completion of the reaction, the resulting products were strongly stirred to mix appropriately.
Formation of copper sulfide (^64CuS) was confirmed by quantification of % decomplexation by using a radio-TLC scanner, and results are shown in the following Tables 2 and 3.

[20] = Hydrogen sulfide selectivity test: decomplexation by NaN3; type: physicochemical; settings: NaN3 (100 μM); 37° C. for 15 minutes
Experimental: as §1, §2, §3, §4, §5

[21] = Hydrogen sulfide selectivity test: decomplexation by DAT (diallyl trisulphide); type: physicochemical; settings: DAT = diallyl trisulphide (100 μM); 37° C. for 15 minutes
Experimental: as §1, §2, §3, §4, §5

[22] = system: colon carcinoma cell CT-26; experiment: Cellular uptake test under various NaHS concentrations (gamma counter); type: cell-based; settings: CT-26 cells
Experimental: Cellular drug uptake is an important prognostic factor in the diagnosis of diseases. Therefore, to examine cellular uptake of the ^64Cu-labeled complex compounds according to the present disclosure, experiments for measuring changes in the cellular uptake under various concentrations of hydrogen sulfide were performed.
A colon carcinoma cell CT-26 was seeded in each plate at a density of 5×10^6, and then 10 μCi-300 μCi of ^64Cu-labeled complex compound of Examples 1, 7 or 9 according to the present disclosure was treated thereto, followed by incubation for 10 minutes. The cells were washed with PBS, and then 0 μM, 1 μM, or 50 μM of NaHS solution was added thereto, followed by incubation for 5 minutes. Thereafter, the cells were washed with PBS, and then cells were removed from the plate by adding trypsin and EDTA, followed by centrifugation. Supernatants were discarded and radiation of remaining cells was measured by using a gamma counter.

[23] = Retention/excretion after injection into sites on the backs of rats (optical imaging); type: in vivo; settings: about 0.48 mCi injected into sites on the backs of rats
Experimental: Next, at the beginning of the second experiment, about 0.48 mCi of ^64Cu(II) ion, ^64CuS, ^64Cu-labeled complex compound according to Example 1, and ^64Cu-labeled complex compound according to Example 16 were injected into four sites on the backs of the same rats, respectively. Immediately, optical images were taken and shown in a lower left image of FIG. 4. A photograph taken after 4 hours was shown in a lower right image of FIG. 4.

| SMILES | Decomplexation [%] [1] [%] | Decomplexation [%] [2] [%] | selective reactivity with hydrogen sulfide versus biothiol compounds or anions, in words [3] | Decomplexation [%] [4] [%] | Decomplexation [%] [5] [%] | selective uptake in inflamed sites (Paw inflammation model) | Formation of copper sulfide (^64CuS) over time ([6]; 10 sec) | Formation of copper sulfide (^64CuS) over time ([6]; 30 sec) | Formation of copper sulfide (^64CuS) over time ([6]; 60 sec) | Formation of copper sulfide (^64CuS) over time ([6]; 5 min) | Formation of copper sulfide (^64CuS) over time ([6]; 10 min) | Formation of copper sulfide (^64CuS) over time ([6]; 15 min) | Decomplexation [%] [7] [%] | Decomplexation [%] [8] [%] | Decomplexation [%] [9] [%] | Decomplexation [%] [10] [%] | Decomplexation [%] [11] [%] | Decomplexation [%] [12] [%] | Decomplexation [%] [13] [%] | Decomplexation [%] [14] [%] | also measured |
| --- | --- | --- | --- | --- | --- | --- | --- | --- | --- | --- | --- | --- | --- | --- | --- | --- | --- | --- | --- | --- | --- |
| C1COCCNCCOCCN1.[64Cu+2] [Example 3] | 5 | 16 | did not selectively react with hydrogen sulfide | 0.4 | 0.4 | selective uptake | 62 | 70 | 75 | 100 | 100 | 100 | 0.3 | 0.4 | 27 ± 3 | 3 ± 1 | 48 | 0.1 | 15 | 0.3 | Decomplexation [%] [15]: 15%; Decomplexation [%] [16]: 0.5%; Decomplexation [%] [17]: 45 ± 2%; Decomplexation [%] [18]: 19 ± 5%; % decomplexation ([19]; NaHS 0 μM): 0%; % decomplexation ([19]; NaHS 1 μM): 0%; % decomplexation ([19]; NaHS 10 μM): 3%; % decomplexation ([19]; NaHS 15 μM): 6%; % decomplexation ([19]; NaHS 20 μM): 79%; % decomplexation ([19]; NaHS 50 μM): 100%; % decomplexation ([19]; NaHS 100 μM): 100%; Decomplexation [%] [20]: 0.6%; Decomplexation [%] [21]: 100% |
| CC1=NC(C)CNC(C)(C)CC(C)=NC(C)CNC(C)(C)C1.[64Cu+2] (stereo not shown) [Example 7] |  |  |  |  |  |  |  |  |  |  |  |  |  |  |  |  |  |  |  |  | Uptake (radiation of remaining cells, gamma counter) ([22]; NaHS Concentration 0 μM): 20000; Uptake (radiation of remaining cells, gamma counter) ([22]; NaHS Concentration 1 μM): 21000; Uptake (radiation of remaining cells, gamma counter) ([22]; NaHS Concentration 50 μM): 23000; uptake in inflamed paw versus opposite paw (Paw inflammation model; optical and nuclear medicine imaging performed 2 hours later): higher uptakes |
| C1C[N]2CCC[N]3CCC[N](C1)[64Cu]23 [Example 21] | 4 ± 2 | 2 ± 2 | did not selectively react with hydrogen sulfide | 3 | 9 ± 3 | selective uptake | 52 | 72 | 100 | 100 | 100 | 100 | 0.9 | 2 ± 1 | 30 ± 5 | 6 ± 2 | 33 | 0.3 | 4 ± 2 | 0.4 ± 0.2 | Decomplexation [%] [15]: 1%; Decomplexation [%] [16]: 0.5%; Decomplexation [%] [17]: 25%; Decomplexation [%] [18]: 3 ± 1%; % decomplexation ([19]; NaHS 0 μM): 0%; % decomplexation ([19]; NaHS 1 μM): 0%; % decomplexation ([19]; NaHS 10 μM): 6.2%; % decomplexation ([19]; NaHS 15 μM): 10%; % decomplexation ([19]; NaHS 20 μM): 58%; % decomplexation ([19]; NaHS 50 μM): 63%; % decomplexation ([19]; NaHS 100 μM): 100%; Decomplexation [%] [20]: 0.5%; Decomplexation [%] [21]: 49 ± 2% |
| [Cu+2] [^64Cu(II) ion, reference compound] |  |  | reacted with various biothiol compounds or anions |  |  |  |  |  |  |  |  |  |  |  |  |  |  |  |  |  | retention time relative to ^64CuS [23]: about half of ^64CuS |
| [Cu+2].[S-2] [^64CuS, copper sulfide (^64CuS)] |  |  |  |  |  |  |  |  |  |  |  |  |  |  |  |  |  |  |  |  | excretion from / retention in the body, in words ([23]; images immediately and after 4 hours): remains for a long time in the body |
